Blank lines part the entries; values can stand above or below the compound they belong to. Active and inactive are the calls of the source. No cut-off for these calls is given here.
What was measured:
SW-620 [1] = experiment: Induction of cell cycle arrest in human SW-620 cells assessed as increase in number of cells at G2/M phase at 7 nM measured after 72 hrs by PI staining using flow cytometry (reference value: 27.08%); format: functional
T98G [2] = experiment: Cytotoxicity against human T98G cells assessed as reduction in cell growth at 15 uM measured after 48 hrs; format: functional, cell-based
MHCC97H [3] = experiment: Cytotoxicity against human MHCC97H cells assessed as reduction in cell growth at 15 uM measured after 48 hrs; format: functional, cell-based
SMMC-7721 [4] = experiment: Cytotoxicity against human SMMC-7721 cells assessed as reduction in cell growth at 15 uM measured after 48 hrs; format: functional, cell-based
NCI-H1299 [5] = experiment: Cytotoxicity against human NCI-H1299 cells assessed as reduction in cell growth at 15 uM measured after 48 hrs; format: functional, cell-based
MDA-MB-231 [6] = experiment: Cytotoxicity against human MDA-MB-231 cells assessed as reduction in cell growth at 15 uM measured after 48 hrs; format: functional, cell-based
PC-3 [7] = experiment: Cytotoxicity against human PC-3 cells assessed as reduction in cell growth at 15 uM measured after 48 hrs; format: functional, cell-based
SK-OV-3 [8] = experiment: Cytotoxicity against human SK-OV-3 cells assessed as reduction in cell growth at 15 uM measured after 48 hrs; format: functional, cell-based
HCT-116 [9] = experiment: Cytotoxicity against human HCT-116 cells assessed as reduction in cell growth at 15 uM measured after 48 hrs; format: functional, cell-based
SW-620 [10] = experiment: Cytotoxicity against human SW-620 cells assessed as reduction in cell growth at 15 uM measured after 48 hrs; format: functional, cell-based
T84 [11] = experiment: Cytotoxicity against human T84 cells reduction in cell growth at 15 uM measured after 48 hrs; format: functional, cell-based
T98G [12] = experiment: Anticancer activity against human T98G cells assessed as inhibition of cell proliferation measured after 72 hrs by MTT assay; format: functional, cell-based
MHCC97H [13] = experiment: Anticancer activity against human MHCC97H cells assessed as inhibition of cell proliferation measured after 72 hrs by MTT assay; format: functional, cell-based
SMMC-7721 [14] = experiment: Anticancer activity against human SMMC-7721 cells assessed as inhibition of cell proliferation measured after 72 hrs by MTT assay; format: functional, cell-based; settings: SMMC-7721, 72 h
NCI-H1299 [15] = experiment: Anticancer activity against human NCI-H1299 cells assessed as inhibition of cell proliferation measured after 72 hrs by MTT assay; format: functional, cell-based; settings: NCI-H1299, 72 h
MDA-MB-231 [16] = experiment: Anticancer activity against human MDA-MB-231 cells assessed as inhibition of cell proliferation measured after 72 hrs by MTT assay; format: functional, cell-based; settings: MDA-MB-231, 72 h
PC-3 [17] = experiment: Anticancer activity against human PC-3 cells assessed as inhibition of cell proliferation measured after 72 hrs by MTT assay; format: functional, cell-based; settings: PC-3, 72 h
SK-OV-3 [18] = experiment: Anticancer activity against human SK-OV-3 cells assessed as inhibition of cell proliferation measured after 72 hrs by MTT assay; format: functional, cell-based; settings: SK-OV-3, 72 h
HCT-116 [19] = experiment: Anticancer activity against human HCT-116 cells assessed as inhibition of cell proliferation measured after 72 hrs by MTT assay; format: functional, cell-based; settings: HCT-116, 72 h
SW-620 [20] = experiment: Anticancer activity against human SW-620 cells assessed as inhibition of cell proliferation measured after 72 hrs by MTT assay; format: functional, cell-based; settings: SW-620, 72 h
T84 [21] = experiment: Anticancer activity against human T84 cells assessed as inhibition of cell proliferation measured after 72 hrs by MTT assay; format: functional, cell-based; settings: T84, 72 h
SW-620 [22] = experiment: Induction of cell cycle arrest in human SW-620 cells assessed as increase in number of cells at G0/G1 phase at 7 nM measured after 72 hrs by PI staining using flow cytometry (reference value: 60.05%); format: functional
SW-620 [23] = experiment: Induction apoptosis in human SW-620 cells assessed as increase in live cells at 7 nM measured after 72 hrs by Annexin VFITC /PI staining with flow cytometry (reference value: 92.6%); format: functional
SW-620 [24] = experiment: Inhibition of colony formation in human SW-620 cells assessed as damaged tumor spheres at 3.5 to 30 nM by crystal violet staining based microscopic analysis; format: functional, cell-based; settings: dose 3.5-30 nM
SW-620 [25] = experiment: Induction of apoptosis in human SW-620 cells assessed as increase in cleaved caspase 3/7 level at 15 nM relative to control; format: functional
SW-620 [26] = experiment: Induction of apoptosis in human SW-620 cells assessed as increase in cleaved caspase 3/7 level at 11.5 nM relative to control; format: functional
SW-620 [27] = experiment: Induction of apoptosis in human SW-620 cells assessed as increase in cleaved caspase 3/7 level at 7 nM relative to control; format: functional
SW-620 [28] = experiment: Induction of apoptosis in human SW-620 cells assessed as increase in cleaved caspase 3/7 level at 3.5 nM relative to control; format: functional
SW-620 [29] = experiment: Induction of mitochondrial membrane potential loss in human SW-620 cells at 3.5 nM by JC-1 staining based fluorescence microscopic analysis; format: functional, cell-based
SW-620 [30] = experiment: Induction apoptosis in human SW-620 cells assessed as increase in necrotic cells apoptotic cells at 15 nM measured after 72 hrs by Annexin VFITC /PI staining with flow cytometry (reference value: 0.24%); format: functional
SW-620 [31] = experiment: Induction apoptosis in human SW-620 cells assessed as increase in late apoptotic cells at 15 nM measured after 72 hrs by Annexin VFITC /PI staining with flow cytometry (reference value: 3.18%); format: functional
SW-620 [32] = experiment: Induction apoptosis in human SW-620 cells assessed as increase in early apoptotic cells at 15 nM measured after 72 hrs by Annexin VFITC /PI staining with flow cytometry (reference value: 4.08%); format: functional
SW-620 [33] = experiment: Induction apoptosis in human SW-620 cells assessed as increase in live cells at 15 nM measured after 72 hrs by Annexin VFITC /PI staining with flow cytometry (reference value: 92.6%); format: functional
SW-620 [34] = experiment: Induction apoptosis in human SW-620 cells assessed as increase in necrotic cells apoptotic cells at 7 nM measured after 72 hrs by Annexin VFITC /PI staining with flow cytometry (reference value: 0.24%); format: functional
SW-620 [35] = experiment: Induction apoptosis in human SW-620 cells assessed as increase in late apoptotic cells at 7 nM measured after 72 hrs by Annexin VFITC /PI staining with flow cytometry (reference value: 3.18%); format: functional
SW-620 [36] = experiment: Induction apoptosis in human SW-620 cells assessed as increase in early apoptotic cells at 7 nM measured after 72 hrs by Annexin VFITC /PI staining with flow cytometry (reference value: 4.08%); format: functional
SW-620 [37] = experiment: Inhibition of colony formation in human SW-620 cells assessed as damaged tumor sphere at 3 to 6 uM by crystal violet staining based microscopic analysis; format: functional, cell-based; settings: dose 3-6 µM
SW-620 [38] = experiment: Inhibition of colony formation in human SW-620 cells assessed as effect on tumor sphere formation at 30 nM by crystal violet staining based microscopic analysis; format: functional, cell-based
SW-620 [39] = experiment: Induction apoptosis in human SW-620 cells assessed as increase in necrotic cells apoptotic cells at 12 uM measured after 72 hrs by Annexin VFITC /PI staining with flow cytometry (reference value: 0.24%); format: functional
SW-620 [40] = experiment: Induction apoptosis in human SW-620 cells assessed as increase in late apoptotic cells at 12 uM measured after 72 hrs by Annexin VFITC /PI staining with flow cytometry (reference value: 3.18%); format: functional
SW-620 [41] = experiment: Induction apoptosis in human SW-620 cells assessed as increase in early apoptotic cells at 12 uM measured after 72 hrs by Annexin VFITC /PI staining with flow cytometry (reference value: 4.08%); format: functional
SW-620 [42] = experiment: Induction apoptosis in human SW-620 cells assessed as increase in live cells at 12 uM measured after 72 hrs by Annexin VFITC /PI staining with flow cytometry (reference value: 92.6%); format: functional
SW-620 [43] = experiment: Induction apoptosis in human SW-620 cells assessed as increase in necrotic cells apoptotic cells at 6 uM measured after 72 hrs by Annexin VFITC /PI staining with flow cytometry (reference value: 0.24%); format: functional
SW-620 [44] = experiment: Induction apoptosis in human SW-620 cells assessed as increase in late apoptotic cells at 6 uM measured after 72 hrs by Annexin VFITC /PI staining with flow cytometry (reference value: 3.18%); format: functional
SW-620 [45] = experiment: Induction apoptosis in human SW-620 cells assessed as increase in early apoptotic cells at 6 uM measured after 72 hrs by Annexin VFITC /PI staining with flow cytometry (reference value: 4.08%); format: functional
SW-620 [46] = experiment: Induction apoptosis in human SW-620 cells assessed as increase in live cells at 6 uM measured after 72 hrs by Annexin VFITC /PI staining with flow cytometry (reference value: 92.6%); format: functional
SW-620 [47] = experiment: Induction of cell cycle arrest in human SW-620 cells assessed as increase in number of cells at G2/M phase at 6 uM measured after 72 hrs by PI staining using flow cytometry (reference value: 27.08%); format: functional
SW-620 [48] = experiment: Induction of cell cycle arrest in human SW-620 cells assessed as increase in number of cells at G0/G1 phase at 6 uM measured after 72 hrs by PI staining using flow cytometry (reference value: 60.05%); format: functional

- IC50 (SMMC-7721 [14]): 73 nM
- IC50 (NCI-H1299 [15]): 132 nM
- IC50 (MDA-MB-231 [16]): 467 nM
- IC50 (PC-3 [17]): 661 nM
- IC50 (SK-OV-3 [18]): 180 nM
- IC50 (HCT-116 [19]): 7.2 nM
- IC50 (SW-620 [20]): 5.9 nM
SMILES: COc1ccc2cc1Oc1ccc(cc1)Cc1nccc3c4c(c(OC)c(c13)Oc1c3c(cc(OC)c1OC)[C@H](C2)N(C)CC3)OCO4
- Activity (SW-620 [1]): 41%
- Activity (T98G [2]): Active
- Activity (MHCC97H [3]): Active
- Activity (SMMC-7721 [4]): Active
- Activity (NCI-H1299 [5]): Active
- Activity (MDA-MB-231 [6]): Active
- Activity (PC-3 [7]): Active
- Activity (SK-OV-3 [8]): Active
- Activity (HCT-116 [9]): Active
- Activity (SW-620 [10]): Active
- Activity (T84 [11]): Active
- IC50 (T98G [12]): 382 nM
- IC50 (MHCC97H [13]): 145 nM
- IC50 (T84 [21]): 8.2 nM
- Activity (SW-620 [22]): 46.37%
- Activity (SW-620 [23]): 82.74%
- inhibition (SW-620 [24]): Active
- fold change (FC) (SW-620 [25]): 12.9
- fold change (FC) (SW-620 [26]): 9.3
- fold change (FC) (SW-620 [27]): 8.2
- fold change (FC) (SW-620 [28]): 3.3
- Activity (SW-620 [29]): Active
- Activity (SW-620 [30]): 0.15%
- Activity (SW-620 [31]): 4.83%
- Activity (SW-620 [32]): 26.2%
- Activity (SW-620 [33]): 69.82%
- Activity (SW-620 [34]): 1.2%
- Activity (SW-620 [35]): 7.36%
- Activity (SW-620 [36]): 8.7%

- IC50 (HCT-116 [19]): 4.4 nM
- IC50 (SW-620 [20]): 5.1 nM
SMILES: CCc1c2c(nc3ccc(OC(=O)N4CCC(N5CCCCC5)CC4)cc13)-c1cc3c(c(=O)n1C2)COC(=O)[C@]3(O)CC [IRINOTECAN]
- IC50 (T84 [21]): 6.9 nM
- inhibition (SW-620 [37]): Active
- inhibition (SW-620 [38]): inactive
- Activity (SW-620 [39]): 0.34%
- Activity (SW-620 [40]): 5.3%
- Activity (SW-620 [41]): 13.18%
- Activity (SW-620 [42]): 81.18%
- Activity (SW-620 [43]): 0.34%
- Activity (SW-620 [44]): 4.12%
- Activity (SW-620 [45]): 7.84%
- Activity (SW-620 [46]): 87.7%
- Activity (SW-620 [47]): 55.12%
- Activity (SW-620 [48]): 33.53%

- IC50 (HCT-116 [19]): 4 nM
- IC50 (SW-620 [20]): 4.7 nM
SMILES: CC(=O)O[C@@]12CO[C@@H]1C[C@H](O)[C@@]1(C)C(=O)[C@H](O)C3=C(C)[C@@H](OC(=O)[C@H](O)[C@@H](NC(=O)OC(C)(C)C)c4ccccc4)C[C@@](O)([C@@H](OC(=O)c4ccccc4)[C@H]21)C3(C)C [DOCETAXEL ANHYDROUS]
- IC50 (T84 [21]): 2.7 nM

— ChEMBL document CHEMBL4680292, “Neothalfine, a potent natural anti-tumor agent against metastatic colorectal cancer and its primary mechanism” (Bioorg Med Chem, 2021)
